These compounds were tested against T1, full length AKT E17K (Homo sapiens, UniProt P31749, E17K) (assay: NanoBRET Target Engagement (TE) Assay). Details: competitive displacement of tracer in cells, read-out: AKT1 E17K IC50.
T1 construct: host or cells: HEK-293 (ATCC CRL-1573)
Assay type: cell-based
Summary of the method: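 Compound and tracer incubated 2 h before luminescence at donor 450 nm and acceptor 600 nm, with extracellular signal inhibited. EC50 by sigmoidal variable-slope regression.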

T1 sequence (P31749 whole entry E17K): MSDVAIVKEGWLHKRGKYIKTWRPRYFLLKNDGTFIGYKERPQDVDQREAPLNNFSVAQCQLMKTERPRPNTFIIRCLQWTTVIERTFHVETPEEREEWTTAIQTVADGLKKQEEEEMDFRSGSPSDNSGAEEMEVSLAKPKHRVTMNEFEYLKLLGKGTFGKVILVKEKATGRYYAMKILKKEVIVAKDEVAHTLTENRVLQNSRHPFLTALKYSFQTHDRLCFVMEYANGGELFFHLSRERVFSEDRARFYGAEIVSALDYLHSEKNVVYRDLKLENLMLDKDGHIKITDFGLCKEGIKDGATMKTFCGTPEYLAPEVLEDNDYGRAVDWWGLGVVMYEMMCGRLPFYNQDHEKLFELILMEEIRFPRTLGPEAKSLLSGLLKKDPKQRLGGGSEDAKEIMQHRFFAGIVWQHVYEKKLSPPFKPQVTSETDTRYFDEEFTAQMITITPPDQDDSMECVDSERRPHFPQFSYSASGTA

Question: With `N#Cc1ncnc(N2C[C@@H]3C[C@H]2CN3Cc2ccc(-n3c(-c4cccnc4N)nc4ccc(-c5ccccc5)nc43)cc2)n1` [Example 338, 4-((1S,4S)-5-(4-(2-(2-Aminopyridin-3-yl)-5-phenyl-3H-imidazo[4,5-b]pyridin-3-yl)benzyl)-2,5-diazabicyclo[2.2.1]heptan-2-yl)-1,3,5-triazine-2-carbonitrile] as the compound, how does the IC50 read?
Answer: Its IC50 is 15 to 60 nM.

Question: For `COc1ncccc1-c1ccc2nc(-c3cccnc3N)n(-c3ccc(CN4CCC(Nc5ccnc(C#N)n5)CC4)cc3)c2n1` [Example 537, 4-((1-(4-(2-(2-Aminopyridin-3-yl)-5-(2-methoxypyridin-3-yl)-3H-imidazo[4,5-b]pyridin-3-yl)benzyl)piperidin-4-yl)amino)pyrimidine-2-carbonitrile], which IC50 is on record?
Answer: The IC50 was < 15 nM.

Question: How did the IC50 turn out when `N#Cc1ccnc(N2CCN(Cc3ccc(-n4c(-c5cccnc5N)nc5ccc(C6CC6)nc54)cc3)CC2)n1` [Example 350, 2-(4-(4-(2-(2-Aminopyridin-3-yl)-5-cyclopropyl-3H-imidazo[4,5-b]pyridin-3-yl)benzyl)piperazin-1-yl)pyrimidine-4-carbonitrile] was run?
Answer: Its IC50 is 15 to 60 nM.

Question: Which IC50 does the source give for `N#Cc1nccc(NC2CC3(CCN(Cc4ccc(-n5c(-c6cccnc6N)nc6ccc(-c7ccc(F)cc7)nc65)cc4)CC3)C2)n1` [Example 444, 4-((7-(4-(2-(2-Aminopyridin-3-yl)-5-(4-fluorophenyl)-3H-imidazo[4,5-b]pyridin-3-yl)benzyl)-7-azaspiro[3.5]nonan-2-yl)amino)pyrimidine-2-carbonitrile] here?
Answer: Its IC50 is 15 to 60 nM.

Question: Which IC50 does the source give for `CCn1ncc(-c2ccc3nc(-c4cccnc4N)n(-c4ccc(CN5CCC(Nc6ccnc(C#N)n6)CC5)cc4)c3n2)n1` [Example 609, 4-((1-(4-(2-(2-Aminopyridin-3-yl)-5-(2-ethyl-2H-1,2,3-triazol-4-yl)-3H-imidazo[4,5-b]pyridin-3-yl)benzyl)piperidin-4-yl)amino)pyrimidine-2-carbonitrile] here?
Answer: The IC50 was < 15 nM.

Question: For `Cc1nnc(-c2ccc3nc(-c4cccnc4N)n(-c4ccc(CN5CCC(Nc6ccnc(C#N)n6)CC5)cc4)c3n2)o1` [Example 566, 4-((1-(4-(2-(2-Aminopyridin-3-yl)-5-(5-methyl-1,3,4-oxadiazol-2-yl)-3H-imidazo[4,5-b]pyridin-3-yl)benzyl)piperidin-4-yl)amino)pyrimidine-2-carbonitrile], which IC50 is on record?
Answer: The IC50 was 15 to 60 nM.

Question: How did the IC50 turn out when `N#Cc1nccc(NC2CCN(Cc3ccc(-n4c(-c5cccnc5N)nc5ccc(C6CCCC6)nc54)cc3)CC2)n1` [Example 388, 4-((1-(4-(2-(2-Aminopyridin-3-yl)-5-cyclopentyl-3H-imidazo[4,5-b]pyridin-3-yl)benzyl)piperidin-4-yl)amino)pyrimidine-2-carbonitrile] was run?
Answer: Its IC50 is < 15 nM.

Question: With `N#Cc1nccc(NC2CCN(Cc3ccc(-n4c(-c5cccnc5N)nc5ccc([C@@H]6CCOC6)nc54)cc3)CC2)n1` (single isomer, unassigned) [Example 506] as the compound, how does the IC50 read?
Answer: The IC50 was < 15 nM.

Question: With `COc1cncc(-c2ccc3nc(-c4cccnc4N)n(-c4ccc(CN5CCC(Nc6ccnc(C#N)n6)CC5)cc4)c3n2)c1` [Example 512, 4-((1-(4-(2-(2-Aminopyridin-3-yl)-5-(5-methoxypyridin-3-yl)-3H-imidazo[4,5-b]pyridin-3-yl)benzyl)piperidin-4-yl)amino)pyrimidine-2-carbonitrile] as the compound, how does the IC50 read?
Answer: Its IC50 is < 15 nM.

Question: With `N#Cc1nccc(NC2CCN(Cc3ccc(-n4c(-c5cccnc5N)nc5ccc(-c6ccc(C(F)(F)F)cn6)nc54)cc3)CC2)n1` [Example 650, 4-((1-(4-(2-(2-Aminopyridin-3-yl)-5-(5-(trifluoromethyl)pyridin-2-yl)-3H-imidazo[4,5-b]pyridin-3-yl)benzyl)piperidin-4-yl)amino)pyrimidine-2-carbonitrile] as the compound, how does the IC50 read?
Answer: Its IC50 is 15 to 60 nM.

Question: With `N#Cc1nccc(NC2CCN(Cc3ccc(-n4c(-c5cccnc5)nc5ccc(-c6ccc(F)cn6)nc54)cc3)CC2)n1` [Example 575, 4-((1-(4-(5-(5-Fluoropyridin-2-yl)-2-(pyridin-3-yl)-3H-imidazo[4,5-b]pyridin-3-yl)benzyl)piperidin-4-yl)amino)pyrimidine-2-carbonitrile] as the compound, how does the IC50 read?
Answer: The IC50 was 60 to 600 nM.

Question: How did the IC50 turn out when `CCn1cc(-c2ccc3nc(-c4cccnc4N)n(-c4ccc(CN5CCC(Nc6ccnc(C#N)n6)CC5)cc4)c3n2)nn1` [Example 625, 4-((1-(4-(2-(2-Aminopyridin-3-yl)-5-(1-ethyl-1H-1,2,3-triazol-4-yl)-3H-imidazo[4,5-b]pyridin-3-yl)benzyl)piperidin-4-yl)amino)pyrimidine-2-carbonitrile] was run?
Answer: The IC50 was < 15 nM.

Question: How did the IC50 turn out when `N#Cc1nccc(NC2CCN(Cc3ccc(-n4c(-c5cccnc5N)nc5ccc(-c6ccncc6)nc54)cc3)CC2)n1` [Example 433, 4-((1-(4-(2-(2-Aminopyridin-3-yl)-5-(pyridin-4-yl)-3H-imidazo[4,5-b]pyridin-3-yl)benzyl)piperidin-4-yl)amino)pyrimidine-2-carbonitrile] was run?
Answer: The IC50 was < 15 nM.

Question: `N#Cc1nccc(NC2CN(Cc3ccc(-n4c(-c5cccnc5N)nc5ccc(-c6ccc(F)cc6)nc54)cc3)C2)n1` [Example 443, 4-((1-(4-(2-(2-Aminopyridin-3-yl)-5-(4-fluorophenyl)-3H-imidazo[4,5-b]pyridin-3-yl)benzyl)azetidin-3-yl)amino)pyrimidine-2-carbonitrile] was tested. Which IC50 did it give?
Answer: The IC50 was < 15 nM.

Question: For `N#Cc1nccc(NC2CCN(Cc3ccc(-n4c(-c5cccnc5N)nc5nccnc54)cc3)CC2)n1` [Example 413, 4-((1-(4-(2-(2-aminopyridin-3-yl)-1H-imidazo[4,5-b]pyrazin-1-yl)benzyl)piperidin-4-yl)amino)pyrimidine-2-carbonitrile], which IC50 is on record?
Answer: The IC50 was 15 to 60 nM.

Question: With `Cc1ncoc1-c1ccc2nc(-c3cccnc3N)n(-c3ccc(CN4CCC(Nc5ccnc(C#N)n5)CC4)cc3)c2n1` [Example 554, 4-((1-(4-(2-(2-Aminopyridin-3-yl)-5-(4-methyloxazol-5-yl)-3H-imidazo[4,5-b]pyridin-3-yl)benzyl)piperidin-4-yl)amino)pyrimidine-2-carbonitrile] as the compound, how does the IC50 read?
Answer: The IC50 was < 15 nM.

Question: How did the IC50 turn out when `CC(C)n1ncc(-c2ccc3nc(-c4cccnc4N)n(-c4ccc(CN5CCC(Nc6ccnc(C#N)n6)CC5)cc4)c3n2)n1` [Example 610, 4-((1-(4-(2-(2-Aminopyridin-3-yl)-5-(2-isopropyl-2H-1,2,3-triazol-4-yl)-3H-imidazo[4,5-b]pyridin-3-yl)benzyl)piperidin-4-yl)amino)pyrimidine-2-carbonitrile] was run?
Answer: The IC50 was < 15 nM.

Same assay, conditions: competitive tracer displacement in living cells, read-out: AKT1 E17K IC50

Question: `N#Cc1nccc(N2CC3CCC2CN3Cc2ccc(-n3c(-c4cccnc4N)nc4ccc(-c5ccccc5)nc43)cc2)n1` (stereo not shown) [Example 219, 4-(5-(4-(2-(2-Aminopyridin-3-yl)-5-phenyl-3H-imidazo[4,5-b]pyridin-3-yl)benzyl)-2,5-diazabicyclo[2.2.2]octan-2-yl)pyrimidine-2-carbonitrile] was tested. Which IC50 did it give?
Answer: The IC50 was < 15 nM.

Question: With `C[C@@H]1CN(Cc2ccc(-n3c(-c4cccnc4N)nc4ccc(-c5ccccc5)nc43)cc2)C[C@@H](C)N1c1ncnc(C#N)n1` [Example 256, 4-((2R,6R)-4-(4-(2-(2-Aminopyridin-3-yl)-5-phenyl-3H-imidazo[4,5-b]pyridin-3-yl)benzyl)-2,6-dimethylpiperazin-1-yl)-1,3,5-triazine-2-carbonitrile] as the compound, how does the IC50 read?
Answer: The IC50 was 15 to 60 nM.

Question: How did the IC50 turn out when `N#Cc1ccc(N2CCN(Cc3ccc(-n4c(-c5cccnc5N)nc5cccnc54)cc3)CC2)cn1` [Example 14, 5-(4-(4-(2-(2-Aminopyridin-3-yl)-3H-imidazo[4,5-b]pyridin-3-yl)benzyl)piperazin-1-yl)picolinonitrile] was run?
Answer: Its IC50 is 600 to 10000 nM.

Question: How did the IC50 turn out when `N#Cc1ccnc(OC2CCN(Cc3ccc(-n4c(-c5cccnc5N)nc5ccc(-c6ccccc6)nc54)cc3)CC2)c1` [Example 8, 2-((1-(4-(2-(2-Aminopyridin-3-yl)-5-phenyl-3H-imidazo[4,5-b]pyridin-3-yl)benzyl)piperidin-4-yl)oxy)isonicotinonitrile] was run?
Answer: The IC50 was 600 to 10000 nM.

Question: Which IC50 does the source give for `N#Cc1nccnc1C(=O)N1CCN(Cc2ccc(-n3c(-c4cccnc4N)nc4cccnc43)cc2)CC1` [Example 164, 3-(4-(4-(2-(2-Aminopyridin-3-yl)-3H-imidazo[4,5-b]pyridin-3-yl)benzyl)piperazine-1-carbonyl)pyrazine-2-carbonitrile] here?
Answer: The IC50 was 600 to 10000 nM.

Question: With `N#Cc1ccncc1C(=O)NC1CCN(Cc2ccc(-n3c(-c4cccnc4N)nc4ccc(-c5ccccc5)nc43)cc2)CC1` [Example 60, N-(1-(4-(2-(2-Aminopyridin-3-yl)-5-phenyl-3H-imidazo[4,5-b]pyridin-3-yl)benzyl)piperidin-4-yl)-4-cyanonicotinamide] as the compound, how does the IC50 read?
Answer: Its IC50 is < 15 nM.

Question: With `N#Cc1ccc(C(=O)NC2CCN(Cc3ccc(-n4c(-c5cccnc5N)nc5ccc(-c6ccccc6)nc54)cc3)CC2)nc1` [Example 81, N-(1-(4-(2-(2-Aminopyridin-3-yl)-5-phenyl-3H-imidazo[4,5-b]pyridin-3-yl)benzyl)piperidin-4-yl)-5-cyanopicolinamide] as the compound, how does the IC50 read?
Answer: Its IC50 is 60 to 600 nM.

Question: `N#Cc1cncc(NC2CCN(Cc3ccc(-n4c(-c5cccnc5N)nc5ccc(-c6ccccc6)nc54)cc3)CC2)c1` [Example 93, 5-((1-(4-(2-(2-Aminopyridin-3-yl)-5-phenyl-3H-imidazo[4,5-b]pyridin-3-yl)benzyl)piperidin-4-yl)amino)nicotinonitrile] was tested. Which IC50 did it give?
Answer: The IC50 was 60 to 600 nM.

Question: How did the IC50 turn out when `N#Cc1nc2c(C(=O)N3CCN(Cc4ccc(-n5c(-c6cccnc6N)nc6ccc(-c7ccccc7)nc65)cc4)CC3)cc(F)cc2s1` [Example 181, 4-(4-(4-(2-(2-Aminopyridin-3-yl)-5-phenyl-3H-imidazo[4,5-b]pyridin-3-yl)benzyl)piperazine-1-carbonyl)-6-fluorobenzo[d]thiazole-2-carbonitrile] was run?
Answer: Its IC50 is 15 to 60 nM.

Question: With `N#Cc1cncc(NCc2ccc(-n3c(-c4cccnc4N)nc4cccnc43)cc2)c1` [Example 131, 5-((4-(2-(2-Aminopyridin-3-yl)-3H-imidazo[4,5-b]pyridin-3-yl)benzyl)amino)nicotinonitrile] as the compound, how does the IC50 read?
Answer: The IC50 was 600 to 10000 nM.

Question: How did the IC50 turn out when `N#Cc1ccnc(N2CC3CCC2CN3Cc2ccc(-n3c(-c4cccnc4N)nc4ccc(-c5ccccc5)nc43)cc2)n1` (stereo not shown) [Example 220, 2-(5-(4-(2-(2-Aminopyridin-3-yl)-5-phenyl-3H-imidazo[4,5-b]pyridin-3-yl)benzyl)-2,5-diazabicyclo[2.2.2]octan-2-yl)pyrimidine-4-carbonitrile] was run?
Answer: The IC50 was 60 to 600 nM.
